US11524966B1 (Valo Early Discovery, Inc., priority 2017, dated 2022)

biological target: T1, USP28 (His-tagged USP28-FL-mammalian) (Homo sapiens, UniProt Q96RU2); experiment: Ubiquitin-Rhodamine 110 Assay for USP28 Activity, Example A-1(a); assay type: biochemical; details: Ubiquitin-Rhodamine 110 assay, Example A-1(a); read-out: USP28 A-1(a) IC50 range
T1 construct: Expression of USP28 (1-1077)-TEV-6*His (pTT5 vector); made in house; host or cells: Expi293f cells (pTT5 vector)
T1 sequence (Q96RU2 1-1077): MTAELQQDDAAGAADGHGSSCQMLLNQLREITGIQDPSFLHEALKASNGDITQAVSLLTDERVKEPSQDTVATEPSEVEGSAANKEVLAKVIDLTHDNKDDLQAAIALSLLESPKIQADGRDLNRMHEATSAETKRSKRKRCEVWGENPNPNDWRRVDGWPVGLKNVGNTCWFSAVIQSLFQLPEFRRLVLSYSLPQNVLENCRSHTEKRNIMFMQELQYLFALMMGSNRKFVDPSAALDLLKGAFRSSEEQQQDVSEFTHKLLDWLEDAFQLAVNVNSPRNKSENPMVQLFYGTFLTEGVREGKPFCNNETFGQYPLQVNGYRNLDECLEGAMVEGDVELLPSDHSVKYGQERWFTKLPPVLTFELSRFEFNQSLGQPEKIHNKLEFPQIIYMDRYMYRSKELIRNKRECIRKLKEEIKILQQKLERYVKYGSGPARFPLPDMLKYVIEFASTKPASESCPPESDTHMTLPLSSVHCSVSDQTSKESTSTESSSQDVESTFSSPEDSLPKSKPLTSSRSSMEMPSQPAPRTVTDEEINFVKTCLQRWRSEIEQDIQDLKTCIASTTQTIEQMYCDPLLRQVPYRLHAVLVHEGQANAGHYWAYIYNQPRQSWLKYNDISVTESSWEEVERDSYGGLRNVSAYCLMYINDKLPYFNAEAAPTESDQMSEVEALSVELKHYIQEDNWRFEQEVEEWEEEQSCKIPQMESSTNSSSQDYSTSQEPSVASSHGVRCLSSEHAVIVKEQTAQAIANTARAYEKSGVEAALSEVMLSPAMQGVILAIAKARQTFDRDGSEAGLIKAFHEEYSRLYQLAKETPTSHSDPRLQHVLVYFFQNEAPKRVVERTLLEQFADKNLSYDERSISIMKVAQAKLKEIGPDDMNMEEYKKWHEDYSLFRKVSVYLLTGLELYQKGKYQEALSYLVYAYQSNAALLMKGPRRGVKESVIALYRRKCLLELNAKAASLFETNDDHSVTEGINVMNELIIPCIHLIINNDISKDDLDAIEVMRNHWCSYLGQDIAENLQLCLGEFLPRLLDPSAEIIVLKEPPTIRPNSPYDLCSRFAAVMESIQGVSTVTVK
In short: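 Full-length His-tagged human USP28 (1-1077, Expi293f-expressed), […], with 25 nM Ub-Rh110 (<<Km) in pH 8.0 Tris buffer with BME, BGG, Triton X-100. 10-point dilutions (25 μM-1.3 nM), 45 min at room temperature, citric acid stop, fluorescence 485/535 nm; IC50 by 4-parameter fit.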

First: Cc1ccc2c(N)c(C(=O)N[C@@H]3CCc4cc(N5CCN[C@H](CO)C5)ccc4C3)sc2n1 (single isomer, unassigned) [Example 7-10]
Second: Cc1ccc2c(N)c(C(=O)N[C@H]3CCc4cc(N5CCN[C@H](CO)C5)ccc4C3)sc2n1 (single isomer, unassigned) [Example 7-8]
The IC50 of the first is lower: 50 to 200 nM for the first, 200 to 2000 nM for the second. The first is the more potent here.

First: Cc1cc(C(F)(F)F)c2c(N)c(C(=O)N[C@H]3COc4cc(N5CCNCC5)cc(F)c4C3)sc2n1 [Example 10-14, (R)-3-amino-N-(5-fluoro-7-(piperazin-1-yl)chroman-3-yl)-6-methyl-4-(trifluoromethyl)thieno[2,3-b]pyridine-2-carboxamide]
Second: Cc1ccc2c(N)c(C(=O)N[C@@H]3COc4cc(N5CCNCC5)cc(F)c4C3)sc2n1 [Example 10-5, (S)-3-amino-N-(5-fluoro-7-(piperazin-1-yl)chroman-3-yl)-6-methylthieno[2,3-b]pyridine-2-carboxamide]
The IC50 of the first is lower: 1 to 50 nM for the first, 200 to 2000 nM for the second.

`Cc1nc2sc(C(=O)N[C@H]3CCc4cc(N5CC6CCC(C5)N6)ccc4C3)c(N)c2cc1F` (single isomer, unassigned) [Example 11-3] and `Cc1ccc2c(N)c(C(=O)N[C@@H]3CCc4cc(N5CC6CCC(C5)N6)ccc4C3)sc2n1` [Example 11-2, N-((2R)-6-(3,8-diazabicyclo[3.2.1]octan-3-yl)-1,2,3,4-tetrahydronaphthalen-2-yl)-3-amino-6-methylthieno[2,3-b]pyridine-2-carboxamide] fall in the same range of IC50: 50 to 200 nM for the first, 50 to 200 nM for the second.

First: Cc1cnc2c(N)c(C(=O)N[C@H]3CCc4cc(N5CCNC[C@H](O)C5)ccc4C3)sc2n1 (single isomer, unassigned) [Example 7-6]
Second: Cc1cnc2c(N)c(C(=O)N[C@@H]3CCc4cc(N5CC6CCC(C5)N6)cc(F)c4C3)sc2n1 (single isomer, unassigned) [Example 11-14]
The IC50 of the first is higher: 200 to 2000 nM for the first, 1 to 50 nM for the second.

Compared with `CCn1ccc2cc(C(=O)N[C@H]3CCc4cc(N5CC6CCC(C5)N6)ccc4C3)cnc21` (single isomer, unassigned) [Example 11-9], `CO[C@H]1CN(c2cc(F)c3c(c2)OC[C@H](NC(=O)c2sc4nc(C)ccc4c2N)C3)C[C@@H]1N` (single isomer, unassigned) [Example 10-3] is lower in IC50: 200 to 2000 nM for the first, 1 to 50 nM for the second. The second is the more potent here.

Work on `Cc1cnc2c(N)c(C(=O)N[C@H]3COc4cc(N5CC6CNCC(C5)O6)cc(F)c4C3)sc2n1` [Example 10-12, N-((3R)-7-(9-oxa-3,7-diazabicyclo[3.3.1]nonan-3-yl)-5-fluorochroman-3-yl)-7-amino-3-methylthieno[2,3-b]pyrazine-6-carboxamide] yielded an IC50 of 1 to 50 nM.

same assay, conditions: Ubiquitin-Rhodamine 110 assay, format Example A-1(a); read-out: USP28 A-1(a) IC50 range

`Cc1ccc2c(N)c(C(=O)N[C@H]3COc4c(ccc(N5CCNCC5)c4Cl)C3)sc2n1` [Example 13_7, (R)-3-amino-N-(8-chloro-7-(piperazin-1-yl)chroman-3-yl)-6-methylthieno[2,3-b]pyridine-2-carboxamide] and `Cc1ccc2c(N)c(C(=O)N[C@@H]3CCc4c(ccc(N5CCNCC5)c4F)C3)sc2n1` (single isomer, unassigned) [Example 21-5] fall in the same range of IC50: 1 to 50 nM for the first, 1 to 50 nM for the second.

`Cc1ccc2c(N)c(C(=O)N[C@H]3COc4cc(N5CC6CCC(C5)N6)c(F)c(F)c4C3)sc2n1` [Example 13-3, N-((3R)-7-(3,8-diazabicyclo[3.2.1]octan-3-yl)-5,6-difluorochroman-3-yl)-3-amino-6-methylthieno[2,3-b]pyridine-2-carboxamide] and `Cc1ccc2c(N)c(C(=O)N[C@@H]3CCc4c(F)c(N5CC6CCC(C5)N6)cc(F)c4C3)sc2n1` (single isomer, unassigned) [Example 22-6] fall in the same range of IC50: 200 to 2000 nM for the first, 200 to 2000 nM for the second.

Compared with `CO[C@H]1CN(c2ccc3c(n2)CC[C@H](NC(=O)c2sc4nc(C)ccc4c2N)C3)C[C@@H]1N` [Example 23-4, 3-amino-N-[(6S)-2-[(3S,4S)-3-amino-4-methoxypyrrolidin-1-yl]-5,6,7,8-tetrahydroquinolin-6-yl]-6-methylthieno[2,3-b]pyridine-2-carboxamide], `CO[C@H]1CN(c2ccc3c(n2)CC[C@@H](NC(=O)c2sc4nc(C)cnc4c2N)C3)C[C@@H]1N` (single isomer, unassigned) [Example 23-2] is higher in IC50: 50 to 200 nM for the first, greater than 2000 nM for the second.
